Laboratory results reported in patent US8048986B2, “Reversed mammalian protein-protein interaction trap” (Vlaams Interuniversitair Instituut Voor Biotechnologie VZW, priority 2001, dated 2011).
Entries after “also recorded” stand apart in the source; their conditions may differ.

Molecular target: ALK4-FKBP12 interaction (Homo sapiens, UniProt P62942)
Assay: reversed interaction trap: pSELFFY-ALK4 bait with inhibitory prey pMET7-fPPD1-FKBP12, rPAP1-luciferase reporter in HEK293T cells
Type: cell-based
Settings: pSELFFY-ALK4 + pMET7-fPPD1-FKBP12 (1000, 500, 250 ng), FK506 pretreatment, Epo 5 ng/ml after four hours, normalized with irrelevant bait pSELFFY-EpoR, FIG. 6
Description: HEK293T cells (six-well plate) were transfected with a combination of the following plasmids:
A representative experiment of triplicate luciferase measurements is shown. The values have been normalized using background luciferase activities (fold induction) and by using an irrelevant bait construct (pSELFFY-EpoR, exp. 4-6) to correct for toxicity of FK506 on the cells.
Two days after transfection, cells were seeded in black well plates (approximately 10,000 cells/well) and pretreated with various concentrations of FK506 as indicated. Epo was added after four hours to the treated cells (5 ng/ml). Twenty-four hours after stimulation, luciferase and beta-galactosidase activities were measured.
The values have been normalized using background luciferase activities (fold induction) and by using an irrelevant bait construct (pSELFFY-EpoR, exp. 4-6) to correct for toxicity of FK506 on the cells.

ALK4-FKBP12 interaction, sequence (P62942 2-107): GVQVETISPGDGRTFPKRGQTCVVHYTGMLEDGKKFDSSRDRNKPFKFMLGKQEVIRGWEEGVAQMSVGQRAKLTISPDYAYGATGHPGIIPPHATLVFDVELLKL
ALK4-FKBP12 interaction, sequence (P18031 1-276 partner limits assumed): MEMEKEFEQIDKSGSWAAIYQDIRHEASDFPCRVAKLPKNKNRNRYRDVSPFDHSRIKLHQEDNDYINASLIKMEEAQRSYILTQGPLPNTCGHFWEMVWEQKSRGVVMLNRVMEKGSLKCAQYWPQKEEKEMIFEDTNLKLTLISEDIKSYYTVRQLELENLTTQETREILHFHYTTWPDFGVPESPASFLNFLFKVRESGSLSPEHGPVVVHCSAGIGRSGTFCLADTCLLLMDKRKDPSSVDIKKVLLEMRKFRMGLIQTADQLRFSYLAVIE

SMILES: C=CC[C@@H]1/C=C(\C)C[C@H](C)C[C@H](OC)[C@H]2O[C@@](O)(C(=O)C(=O)N3CCCC[C@H]3C(=O)O[C@H](/C(C)=C/[C@@H]3CC[C@@H](O)[C@H](OC)C3)[C@H](C)[C@@H](O)CC1=O)[C@H](C)C[C@@H]2OC [FK506]
- restoration of signaling via the pSELFFY-ALK4 bait / block of inhibition by the bait-prey interaction (luciferase activity, fold induction): blocked, in a dose dependent manner; also recorded: partially restores signaling
